We go through twelve molecules from ChEMBL document CHEMBL1128136, “and -N-[(1-benzyl-1H-imidazol-5-yl)-alkyl]-amino acids as angiotensin II AT-1 antagonists” (Bioorg Med Chem Lett, 1995).

Assay [1] addresses T1, Type-1 angiotensin II receptor (Homo sapiens, UniProt P30556).
T1 sequence (P30556 whole entry): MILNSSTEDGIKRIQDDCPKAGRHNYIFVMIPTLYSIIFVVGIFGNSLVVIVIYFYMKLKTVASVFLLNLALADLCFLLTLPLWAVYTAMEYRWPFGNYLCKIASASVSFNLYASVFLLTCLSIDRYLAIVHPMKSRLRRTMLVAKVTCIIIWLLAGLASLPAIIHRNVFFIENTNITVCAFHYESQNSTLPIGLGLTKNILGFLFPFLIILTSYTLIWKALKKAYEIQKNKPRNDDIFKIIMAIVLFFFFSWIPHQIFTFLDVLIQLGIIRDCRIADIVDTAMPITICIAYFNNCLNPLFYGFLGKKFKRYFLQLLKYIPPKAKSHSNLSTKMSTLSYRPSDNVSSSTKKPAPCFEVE
The experiment in a line: Tested for inhibition of Angiotensin II specific binding to Angiotensin II receptor, type 1 in the recombinant human AT-1 receptor expressed in LhAT-1D6 cells. The assay is classed as cell-based.

The species entered for assay [2] is Oryctolagus cuniculus. The experiment in a line: Compound was tested for inhibition of Angiotensin II-induced vasoconstriction of rabbit aorta. The assay is classed as functional.
The target in assay [3] is T2, Angiotensin II receptor (AT-1) type-1 (Rattus norvegicus, UniProt P29089+P25095).
T2 sequence (P29089 whole entry): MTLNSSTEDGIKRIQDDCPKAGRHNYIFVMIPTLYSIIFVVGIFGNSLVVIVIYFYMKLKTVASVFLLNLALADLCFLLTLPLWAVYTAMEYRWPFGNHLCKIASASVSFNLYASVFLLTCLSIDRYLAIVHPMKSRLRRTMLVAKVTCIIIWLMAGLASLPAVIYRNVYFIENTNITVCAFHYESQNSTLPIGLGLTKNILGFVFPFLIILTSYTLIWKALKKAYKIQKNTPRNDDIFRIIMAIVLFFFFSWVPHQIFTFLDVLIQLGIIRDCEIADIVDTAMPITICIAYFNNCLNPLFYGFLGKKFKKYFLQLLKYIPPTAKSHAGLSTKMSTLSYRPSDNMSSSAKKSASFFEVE
T2 sequence (P25095 whole entry): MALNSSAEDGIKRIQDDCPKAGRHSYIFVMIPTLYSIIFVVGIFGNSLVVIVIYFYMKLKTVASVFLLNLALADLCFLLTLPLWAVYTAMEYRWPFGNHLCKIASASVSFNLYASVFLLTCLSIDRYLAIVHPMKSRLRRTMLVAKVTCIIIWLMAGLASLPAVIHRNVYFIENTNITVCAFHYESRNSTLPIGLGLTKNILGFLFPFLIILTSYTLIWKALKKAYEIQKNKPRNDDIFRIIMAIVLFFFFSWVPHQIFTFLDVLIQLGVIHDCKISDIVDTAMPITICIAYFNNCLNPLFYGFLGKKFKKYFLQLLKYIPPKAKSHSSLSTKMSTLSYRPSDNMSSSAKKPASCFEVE
Kind of assay: Compound was tested for inhibition of 125 I-Angiotensin II specific binding to rat mesenteric arteries. The format is protein assay.

The species named for assay [4] is Oryctolagus cuniculus. Kind of assay: Compound was tested for Non-competitive inhibition ofAngiotensin II -induced vasoconstriction of rabbit aorta. The format is functional.

For orientation: IC50 means the concentration at which inhibition is half-maximal. As for `CCCCc1ncc(CN[C@H](Cc2c[nH]c3ccccc23)C(=O)O)n1Cc1ccc(C(=O)O)cc1`, in assay [1], the IC50 was found to be 2.9 nM. In the assay listed under Oryctolagus cuniculus [2], the Kb came to 48 nM. With `CCCCc1ncc(/C=C(\Cc2cccs2)C(=O)O)n1Cc1ccc(C(=O)O)cc1` [EPROSARTAN], the Kb in the assay filed under Oryctolagus cuniculus [2] amounted to 0.21 nM. The molecule `CCCCc1ncc(CN[C@H](C(=O)O)C(C)c2ccccc2)n1Cc1ccc(C(=O)O)cc1` (stereo partly drawn) showed an IC50 in assay [3] of 176 nM. The same molecule yielded a Kb in the assay filed under Oryctolagus cuniculus [2] of 117 nM. In the same order, the values of `CCCCc1ncc(CN(CC(=O)O)Cc2ccccc2)n1Cc1ccc(C(=O)O)cc1` are 31 nM and 11 nM.

For `CCCCc1ncc(CN[C@H](Cc2cccs2)C(=O)O)n1Cc1ccc(C(=O)O)cc1`, in assay [3], the IC50 is reported as 36.7 nM. In the assay listed under Oryctolagus cuniculus [2], this molecule registered a Kb of 5 nM. `CCCCc1ncc(CN[C@@H](Cc2c[nH]c3ccccc23)C(=O)O)n1Cc1ccc(C(=O)O)cc1`: the IC50 in assay [1] came to 48.3 nM. Further, the Kb in the assay listed under Oryctolagus cuniculus [2] came out at 885 nM. In assay [3], `CCCCc1ncc(CN[C@@H](Cc2cccs2)C(=O)O)n1Cc1ccc(C(=O)O)cc1` returned a 50% inhibitory concentration (IC50) of 673 nM. The same molecule returned a Kb in the assay filed under Oryctolagus cuniculus [2] of 63 nM. On the same counts, the results for `CCCCc1ncc(CN[C@@H](Cc2ccccc2)C(=O)O)n1Cc1ccc(C(=O)O)cc1` are 517 nM and 125 nM. Take `CCCCc1ncc(CN[C@@H](C(=O)O)C(C)c2ccccc2)n1Cc1ccc(C(=O)O)cc1` (stereo partly drawn): in assay [3], the concentration for half-maximal inhibition (IC50) came to 28 nM. The same molecule came in with a Kb in the assay listed under Oryctolagus cuniculus [4] of 0.6 nM.

Consider `CCCCc1ncc(CNCC(=O)O)n1Cc1ccc(C(=O)O)cc1`, for which the IC50 in assay [1] amounted to 298 nM. The Kb in the assay filed under Oryctolagus cuniculus [2] was 335 nM. Regarding `CCCCc1ncc(CN[C@H](Cc2ccccc2)C(=O)O)n1Cc1ccc(C(=O)O)cc1`, the IC50 in assay [3] worked out at 3.8 nM. Also, the Kb in the assay filed under Oryctolagus cuniculus [2] is 3.6 nM. `CCCCc1ncc(CN(CC(=O)O)Cc2cccs2)n1Cc1ccc(C(=O)O)cc1` gave an IC50 in assay [3] of 169 nM. The same molecule yielded a Kb in the assay listed under Oryctolagus cuniculus [2] of 2.4 nM.
